Columns and labels:
Type in all cases: in vivo
Avena fatua = assay: Test Example 5: herbicidal effect by foliage application, plastic box (symbol I); conditions: 320 g/ha, 3 weeks after application
In short: (§1)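 Effect is rated 3 weeks after a foliar spray of water-diluted emulsion concentrate at a predetermined herbicide amount. Plants had grown 14 days in a 25° C. to 30° C. greenhouse from seed in sterilized diluvial soil.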

Stellaria media [1] = assay: Test Example 5: herbicidal effect by foliage application, plastic box (symbol P); conditions: 320 g/ha, 3 weeks after application
In short: as §1

Setaria viridis [2] = assay: Test Example 5: herbicidal effect by foliage application, plastic box (symbol G); conditions: 320 g/ha, 3 weeks after application
In short: as §1

Digitaria ciliaris = assay: Test Example 4: herbicidal effect by soil treatment (symbol F); conditions: application herbicide amount 320 g/ha
In short: (§2)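 Seeds were sown in sterilized diluvial soil, covered with about 1.5 cm of soil, and the soil surface was sprayed with a water-diluted emulsion of the compound at a predetermined rate. Plants grew in a greenhouse at 25° C. to 30° C.; effects were scored visually 3 weeks after application.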

[3] = test system: directly sowed rice plant; assay: Test Example 3: effect on crop by foliage application, Wagner pot (symbol b); conditions: application herbicide amount 320 g/ha
In short: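 Plants are raised from seed in flooded paddy conditions: water stands 0.1–0.5 cm over alluvial soil, and the pot is kept in a greenhouse at 25–30 °C. Species sown are barnyardgrass (E. crus-galli var. crus-galli), Leptochloa chinensis, Cyperus difformis and rice.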

Apera spica-venti [4] = assay: Test Example 5: herbicidal effect by foliage application, plastic box (symbol L); conditions: 320 g/ha, 3 weeks after application
In short: as §1

[5] = test system: Echinochloa crus-galli var. crus-galli; assay: Test Example 3: herbicidal effect by foliage application, Wagner pot (symbol H); conditions: application herbicide amount 320 g/ha
In short: (§3)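 Rating at 3 weeks post-spray, by defined criteria. Treatment: emulsion diluted with water to a predetermined amount, applied evenly to foliage of 14-day-old plants raised in alluvial soil flooded 0.1–0.5 cm deep at 25–30 °C, rice co-sown.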

rapeseed = assay: Test Example 5: effect on crop by foliage application, plastic box (symbol g); conditions: 320 g/ha, 3 weeks after application
In short: (§4)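 Diluvial soil, sterilized and boxed (21 × 13 × 7 cm), received spot-sown seed covered by about 1.5 cm soil; plants were then greenhouse-grown at 25–30° C.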

beet = assay: Test Example 5: effect on crop by foliage application, plastic box (symbol f); conditions: 320 g/ha, 3 weeks after application
In short: as §4

Abutilon theophrasti [6] = assay: Test Example 4: herbicidal effect by soil treatment (symbol M); conditions: application herbicide amount 320 g/ha
In short: as §2

Setaria viridis [7] = assay: Test Example 4: herbicidal effect by soil treatment (symbol G); conditions: application herbicide amount 320 g/ha
In short: as §2

Stellaria media [8] = assay: Test Example 4: herbicidal effect by soil treatment (symbol P); conditions: application herbicide amount 320 g/ha
In short: as §2

Amaranthus retroflexus = assay: Test Example 4: herbicidal effect by soil treatment (symbol N); conditions: application herbicide amount 320 g/ha
In short: as §2

Apera spica-venti [9] = assay: Test Example 4: herbicidal effect by soil treatment (symbol L); conditions: application herbicide amount 320 g/ha
In short: as §2

Veronica persica = assay: Test Example 4: herbicidal effect by soil treatment (symbol R); conditions: application herbicide amount 320 g/ha
In short: as §2

Abutilon theophrasti [10] = assay: Test Example 5: herbicidal effect by foliage application, plastic box (symbol M); conditions: 320 g/ha, 3 weeks after application
In short: as §1

[11] = test system: Echinochloa crus-galli var. crus-galli; assay: Test Example 5: herbicidal effect by foliage application, plastic box (symbol H); conditions: 320 g/ha, 3 weeks after application
In short: as §1

rice plant = assay: Test Example 5: effect on crop by foliage application, plastic box (symbol b); conditions: 320 g/ha, 3 weeks after application
In short: as §4

Lolium multiflorum Lam. = assay: Test Example 4: herbicidal effect by soil treatment (symbol K); conditions: application herbicide amount 320 g/ha
In short: as §2

Chenopodium album = assay: Test Example 4: herbicidal effect by soil treatment (symbol O); conditions: application herbicide amount 320 g/ha
In short: as §2

Galium spurium = assay: Test Example 4: herbicidal effect by soil treatment (symbol Q); conditions: application herbicide amount 320 g/ha
In short: as §2

transplanted rice plant = assay: Test Example 1: effect on crop, application before weed generation in submerged conditions (symbol a); conditions: application herbicide amount 320 g/ha
In short: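 Alluvial soil pots flooded to 4 cm water, sown with Echinochloa oryzacola, Scirpus juncoides and Monochoria vaginalis, then transplanted with 2.5 leaf stage rice seedlings; pre-emergence application. Greenhouse 25° C. to 30° C.; scored 0–5 by herbicidal ratio 3 weeks after application.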

Leptochloa chinensis = assay: Test Example 3: herbicidal effect by foliage application, Wagner pot (symbol D); conditions: application herbicide amount 320 g/ha
In short: as §3

Structure (SMILES) | I: Avena fatua, herbicidal effect (criteria of Test Example 1) (Avena fatua) | P: Stellaria media, herbicidal effect (criteria of Test Example 1) (Stellaria media [1]) | G: Setaria viridis, herbicidal effect (criteria of Test Example 1) (Setaria viridis [2]) | F: Digitaria ciliaris, herbicidal effect grade (Digitaria ciliaris) | effect on crop b (directly sowed rice plant), grade 0-5 [3] | L: Apera spica-venti, herbicidal effect (criteria of Test Example 1) (Apera spica-venti [4]) | herbicidal effect on H (Echinochloa crus-galli var. crus-galli), grade 0-5 [5] | g: rapeseed, effect on crop (criteria of Test Example 1) (rapeseed) | f: beet, effect on crop (criteria of Test Example 1) (beet) | M: Abutilon theophrasti, herbicidal effect grade (Abutilon theophrasti [6]) | G: Setaria viridis, herbicidal effect grade (Setaria viridis [7]) | P: Stellaria media, herbicidal effect grade (Stellaria media [8]) | N: Amaranthus retroflexus, herbicidal effect grade (Amaranthus retroflexus) | L: Apera spica-venti, herbicidal effect grade (Apera spica-venti [9]) | R: Veronica persica, herbicidal effect grade (Veronica persica) | M: Abutilon theophrasti, herbicidal effect (criteria of Test Example 1) (Abutilon theophrasti [10]) | H: Echinochloa crus-galli var. crus-galli, herbicidal effect (criteria of Test Example 1) [11] | b: directly sowed rice plant, effect on crop (criteria of Test Example 1) (rice plant) | K: Lolium multiflorum Lam., herbicidal effect grade (Lolium multiflorum Lam.) | O: Chenopodium album, herbicidal effect grade (Chenopodium album) | also measured
CON=C(C)CC1CC(O)=C(c2c(C)cc(Br)cc2OC)C1=O (stereo not drawn) [6-076, 2-(4-bromo-2-methoxy-6-methylphenyl)-3-hydroxy-5-{2-(methoxyimino)propyl}cyclopent-2-enone] | 5 (Herbicidal ratio of 90% or more (almost completely withered)) | 2 (Herbicidal ratio of 20% or higher and lower than 40%) | 5 (Herbicidal ratio of 90% or more (almost completely withered)) | 5 (Herbicidal ratio of 90% or more (almost completely withered)) | 5 (Herbicidal ratio of 90% or more (almost completely withered)) | 5 (Herbicidal ratio of 90% or more (almost completely withered)) | 5 (Herbicidal ratio of 90% or more (almost completely withered)) | 4 (Herbicidal ratio of 70% or higher and lower than 90%) | 0 (Herbicidal ratio of 5% or lower (almost no effect)) | 5 (Herbicidal ratio of 90% or more (almost completely withered)) | 5 (Herbicidal ratio of 90% or more (almost completely withered)) | 0 (Herbicidal ratio of 5% or lower (almost no effect)) | 1 (Herbicidal ratio of 5% or higher and lower than 20%) | 5 (Herbicidal ratio of 90% or more (almost completely withered)) | 0 (Herbicidal ratio of 5% or lower (almost no effect)) | 5 (Herbicidal ratio of 90% or more (almost completely withered)) | 5 (Herbicidal ratio of 90% or more (almost completely withered)) | 5 (Herbicidal ratio of 90% or more (almost completely withered)) | 5 (Herbicidal ratio of 90% or more (almost completely withered)) | 0 (Herbicidal ratio of 5% or lower (almost no effect)) | Q: Galium spurium, herbicidal effect grade (Galium spurium): 0 (Herbicidal ratio of 5% or lower (almost no effect)); Effect grade on crop, a: transplanted rice plant (transplanted rice plant): 5 (Herbicidal ratio of 90% or more (almost completely withered)); herbicidal effect on D (Leptochloa chinensis), grade 0-5 (Leptochloa chinensis): 5 (Herbicidal ratio of 90% or more (almost completely withered))
CON=C(C)CC1CC(O)=C(c2c(C)cc(-c3ccc(Cl)cc3)cc2OC)C1=O (stereo not drawn) [6-077, 2-(4′-chloro-3-methoxy-5-methyl-[1,1′-biphenyl]-4-yl)-3-hydroxy-5-{2-(methoxyimino)propyl}cyclopent-2-enone] | 5 (Herbicidal ratio of 90% or more (almost completely withered)) | 4 (Herbicidal ratio of 70% or higher and lower than 90%) | 5 (Herbicidal ratio of 90% or more (almost completely withered)) | 5 (Herbicidal ratio of 90% or more (almost completely withered)) | 5 (Herbicidal ratio of 90% or more (almost completely withered)) | 5 (Herbicidal ratio of 90% or more (almost completely withered)) | 5 (Herbicidal ratio of 90% or more (almost completely withered)) | 5 (Herbicidal ratio of 90% or more (almost completely withered)) | 4 (Herbicidal ratio of 70% or higher and lower than 90%) | 5 (Herbicidal ratio of 90% or more (almost completely withered)) | 5 (Herbicidal ratio of 90% or more (almost completely withered)) | 3 (Herbicidal ratio of 40% or higher and lower than 70%) | 5 (Herbicidal ratio of 90% or more (almost completely withered)) | 5 (Herbicidal ratio of 90% or more (almost completely withered)) | 4 (Herbicidal ratio of 70% or higher and lower than 90%) | 5 (Herbicidal ratio of 90% or more (almost completely withered)) | 5 (Herbicidal ratio of 90% or more (almost completely withered)) | 5 (Herbicidal ratio of 90% or more (almost completely withered)) | 5 (Herbicidal ratio of 90% or more (almost completely withered)) | 4 (Herbicidal ratio of 70% or higher and lower than 90%) | Q: Galium spurium, herbicidal effect grade (Galium spurium): 4 (Herbicidal ratio of 70% or higher and lower than 90%); Effect grade on crop, a: transplanted rice plant (transplanted rice plant): 5 (Herbicidal ratio of 90% or more (almost completely withered)); herbicidal effect on D (Leptochloa chinensis), grade 0-5 (Leptochloa chinensis): 5 (Herbicidal ratio of 90% or more (almost completely withered))
CON=C(C)CC1CC(OC(=O)COc2ccccc2)=C(c2c(C)cc(-c3ccc(Cl)cc3)cc2OC)C1=O (stereo not drawn) [6-079] | 5 (Herbicidal ratio of 90% or more (almost completely withered)) | 3 (Herbicidal ratio of 40% or higher and lower than 70%) | 5 (Herbicidal ratio of 90% or more (almost completely withered)) | 5 (Herbicidal ratio of 90% or more (almost completely withered)) | 5 (Herbicidal ratio of 90% or more (almost completely withered)) | 5 (Herbicidal ratio of 90% or more (almost completely withered)) | 5 (Herbicidal ratio of 90% or more (almost completely withered)) | 4 (Herbicidal ratio of 70% or higher and lower than 90%) | 0 (Herbicidal ratio of 5% or lower (almost no effect)) | 1 (Herbicidal ratio of 5% or higher and lower than 20%) | 5 (Herbicidal ratio of 90% or more (almost completely withered)) | 0 (Herbicidal ratio of 5% or lower (almost no effect)) | 4 (Herbicidal ratio of 70% or higher and lower than 90%) | 5 (Herbicidal ratio of 90% or more (almost completely withered)) | 3 (Herbicidal ratio of 40% or higher and lower than 70%) | 4 (Herbicidal ratio of 70% or higher and lower than 90%) | 5 (Herbicidal ratio of 90% or more (almost completely withered)) | 5 (Herbicidal ratio of 90% or more (almost completely withered)) | 5 (Herbicidal ratio of 90% or more (almost completely withered)) | 0 (Herbicidal ratio of 5% or lower (almost no effect)) | Q: Galium spurium, herbicidal effect grade (Galium spurium): 0 (Herbicidal ratio of 5% or lower (almost no effect)); Effect grade on crop, a: transplanted rice plant (transplanted rice plant): 5 (Herbicidal ratio of 90% or more (almost completely withered)); herbicidal effect on D (Leptochloa chinensis), grade 0-5 (Leptochloa chinensis): 5 (Herbicidal ratio of 90% or more (almost completely withered))
